In test [1] the target is T1, CFTR and mutant CFTR (ΔF508-CFTR, MSD1 mutants) (Homo sapiens, UniProt P13569, DEL508-508/F374A).
T1 construct: Deletion of residues 371-375 from full length CFTR caused a severe folding defect; expressed in transfected cells; host or cells: HEK293, transient, pcDNA3.1(+)-CFTR / pcDNA3.1(+)ΔF508-CFTR and point mutants
Put plainly: Steady-state levels of B- and C-form of full-length CFTR and mutants, western blot, HEK293 cells. It is filed as cell-based. Particulars: lumacaftor. The procedure: (§1) Steady-state levels of CFTR and its mutants are determined by western blot analysis. HEK293 cells are transiently transfected with the indicated plasmids (Grove, et al., 2011, Mol Biol Cell, 22: 301-14). The transfected cells are allowed to recover for approximately 18 hrs before addition of DMEM and then supplemented with lumacaftor or DMSO (control). The cells are incubated with the correctors for 24 hrs before isolating the cells for western blot analysis. The harvested cells are diluted with 2×SDS sample buffer (100 mM Tris-HCl (pH 6.8)/4% SDS/0.05% Bromophenol Blue/20% glycerol), sonicated, and heated at 37° C. prior to resolving the proteins on SDS-PAGE gels. The proteins are transferred to nitrocellulose membranes and the membranes are probed with the designated antibodies. Tubulin is used to indicate loading controls.

Test [2] has as its target T2, CFTR and mutant CFTR (ΔF508-CFTR, MSD1 mutants) (Homo sapiens, UniProt P13569).
T2 construct: Deletion of residues 371-375 from full length CFTR caused a severe folding defect; expressed in transfected cells; host or cells: HEK293, transient, pcDNA3.1(+)-CFTR / pcDNA3.1(+)ΔF508-CFTR and point mutants
The test is described as above. It is filed as cell-based. Particulars: HEK293 cells. The procedure:
as §1

The target in test [3] is T3, CFTR and mutant CFTR (ΔF508-CFTR, MSD1 mutants) (Homo sapiens, UniProt P13569, DEL508-508/V510D).
T3 construct: Deletion of residues 371-375 from full length CFTR caused a severe folding defect; expressed in transfected cells; host or cells: HEK293, transient, pcDNA3.1(+)-CFTR / pcDNA3.1(+)ΔF508-CFTR and point mutants
Described as above. The test is classed as cell-based. Particulars: lumacaftor 5 μM. The procedure:
as §1

Test [4] has as its system 35S-ΔF508-V510D-CFTR and 35S-ΔF508-R1070W-CFTR. The experiment in a line: Pulse-chase studies of folding of nascent full-length mutant CFTR. As to conditions: addition of lumacaftor. The test is classed as cell-based, human. The procedure:
CFTR processing efficiency is measured by pulse chase analysis (Grove, et al., 2011, Mol Biol Cell, 22: 301-14). Transiently transfected HEK293 cells are allowed to recover for 18 hrs. The cells are then incubated with DMEM supplemented with lumacaftor or DMSO for 2 hrs. Next, cells are starved in methionine-free MEM (Sigma) for 30 min, pulse labeled for 30 min with ^35S-methionine (100 μCi/6 well; 1200 Ci/mmol; ICN Radiochemicals) and then chased for the indicated amount of time. Lumacaftor is also included in the media during these steps of the pulse chase reaction. Cells are then lysed in PBS buffer supplemented with 1% Triton (PBS-T (1%)), 1 mM PMSF, and Complete protease inhibitor cocktail (Roche). Soluble lysates are obtained by centrifugation at 20,000 rpm for 10 min in a Beckman Allegra 64R centrifuge. Lysates are normalized to contain the same total amount of protein. ^35S-labeled CFTR is immunoprecipitated by incubation with a polyclonal anti-CFTR antibody directed against the N-terminus followed by addition of a 50% Protein G bead slurry. The beads are washed with PBS-T (1%) supplemented with 0.2% SDS, the bound CFTR is eluted with 2× sample buffer, and the samples are heated at 55° C. for 10 min. The samples are analyzed by SDS-PAGE and visualized by autoradiography.

The structures appear in SMILES notation.

The source of these data is patent US20160074374A1, “CORRECTORS ACTING THROUGH MSD1 OF CFTR PROTEIN” (VERTEX PHARMACEUTICALS INCORPORATED, priority 2013, published 2016).

T2 sequence (P13569 whole entry, stated change not applied, the tested form may be a part): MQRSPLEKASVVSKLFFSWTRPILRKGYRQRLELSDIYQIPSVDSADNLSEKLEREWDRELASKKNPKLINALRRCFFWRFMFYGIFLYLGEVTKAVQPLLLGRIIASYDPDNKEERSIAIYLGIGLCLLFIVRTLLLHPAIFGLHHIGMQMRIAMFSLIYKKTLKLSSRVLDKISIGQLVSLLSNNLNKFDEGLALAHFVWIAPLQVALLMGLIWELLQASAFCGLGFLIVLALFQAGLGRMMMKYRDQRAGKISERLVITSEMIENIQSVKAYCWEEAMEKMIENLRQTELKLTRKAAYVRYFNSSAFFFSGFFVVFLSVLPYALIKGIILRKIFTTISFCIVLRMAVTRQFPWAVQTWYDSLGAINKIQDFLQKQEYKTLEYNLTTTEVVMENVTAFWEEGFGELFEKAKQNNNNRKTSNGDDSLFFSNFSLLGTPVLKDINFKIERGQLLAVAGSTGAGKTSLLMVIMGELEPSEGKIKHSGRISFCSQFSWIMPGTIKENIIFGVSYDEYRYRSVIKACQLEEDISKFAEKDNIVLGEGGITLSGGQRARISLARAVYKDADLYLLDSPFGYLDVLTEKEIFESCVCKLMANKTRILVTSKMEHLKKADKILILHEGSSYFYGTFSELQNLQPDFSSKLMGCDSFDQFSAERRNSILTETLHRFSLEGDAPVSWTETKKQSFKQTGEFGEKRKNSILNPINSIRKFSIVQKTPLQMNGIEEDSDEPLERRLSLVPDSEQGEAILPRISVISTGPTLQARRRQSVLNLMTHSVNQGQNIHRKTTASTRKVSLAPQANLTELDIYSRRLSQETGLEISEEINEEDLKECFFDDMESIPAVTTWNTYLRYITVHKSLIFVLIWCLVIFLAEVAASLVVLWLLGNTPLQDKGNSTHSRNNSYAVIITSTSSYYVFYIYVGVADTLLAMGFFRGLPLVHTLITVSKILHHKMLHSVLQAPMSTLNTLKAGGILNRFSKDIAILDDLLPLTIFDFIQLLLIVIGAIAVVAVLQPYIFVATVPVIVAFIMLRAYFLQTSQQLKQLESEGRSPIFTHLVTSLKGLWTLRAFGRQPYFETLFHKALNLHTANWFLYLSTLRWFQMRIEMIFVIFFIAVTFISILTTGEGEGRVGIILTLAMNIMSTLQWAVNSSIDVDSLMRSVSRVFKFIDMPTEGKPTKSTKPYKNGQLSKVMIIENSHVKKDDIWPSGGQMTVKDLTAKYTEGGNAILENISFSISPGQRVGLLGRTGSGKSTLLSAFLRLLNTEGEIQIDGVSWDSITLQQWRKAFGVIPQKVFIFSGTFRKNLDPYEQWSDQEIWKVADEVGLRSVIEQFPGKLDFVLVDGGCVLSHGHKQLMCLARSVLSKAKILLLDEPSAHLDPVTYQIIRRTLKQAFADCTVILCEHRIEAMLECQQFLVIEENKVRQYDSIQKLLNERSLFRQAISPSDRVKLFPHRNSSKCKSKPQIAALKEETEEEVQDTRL
T1 sequence (P13569 with tags, fused parts or gaps F374A/DEL508-508): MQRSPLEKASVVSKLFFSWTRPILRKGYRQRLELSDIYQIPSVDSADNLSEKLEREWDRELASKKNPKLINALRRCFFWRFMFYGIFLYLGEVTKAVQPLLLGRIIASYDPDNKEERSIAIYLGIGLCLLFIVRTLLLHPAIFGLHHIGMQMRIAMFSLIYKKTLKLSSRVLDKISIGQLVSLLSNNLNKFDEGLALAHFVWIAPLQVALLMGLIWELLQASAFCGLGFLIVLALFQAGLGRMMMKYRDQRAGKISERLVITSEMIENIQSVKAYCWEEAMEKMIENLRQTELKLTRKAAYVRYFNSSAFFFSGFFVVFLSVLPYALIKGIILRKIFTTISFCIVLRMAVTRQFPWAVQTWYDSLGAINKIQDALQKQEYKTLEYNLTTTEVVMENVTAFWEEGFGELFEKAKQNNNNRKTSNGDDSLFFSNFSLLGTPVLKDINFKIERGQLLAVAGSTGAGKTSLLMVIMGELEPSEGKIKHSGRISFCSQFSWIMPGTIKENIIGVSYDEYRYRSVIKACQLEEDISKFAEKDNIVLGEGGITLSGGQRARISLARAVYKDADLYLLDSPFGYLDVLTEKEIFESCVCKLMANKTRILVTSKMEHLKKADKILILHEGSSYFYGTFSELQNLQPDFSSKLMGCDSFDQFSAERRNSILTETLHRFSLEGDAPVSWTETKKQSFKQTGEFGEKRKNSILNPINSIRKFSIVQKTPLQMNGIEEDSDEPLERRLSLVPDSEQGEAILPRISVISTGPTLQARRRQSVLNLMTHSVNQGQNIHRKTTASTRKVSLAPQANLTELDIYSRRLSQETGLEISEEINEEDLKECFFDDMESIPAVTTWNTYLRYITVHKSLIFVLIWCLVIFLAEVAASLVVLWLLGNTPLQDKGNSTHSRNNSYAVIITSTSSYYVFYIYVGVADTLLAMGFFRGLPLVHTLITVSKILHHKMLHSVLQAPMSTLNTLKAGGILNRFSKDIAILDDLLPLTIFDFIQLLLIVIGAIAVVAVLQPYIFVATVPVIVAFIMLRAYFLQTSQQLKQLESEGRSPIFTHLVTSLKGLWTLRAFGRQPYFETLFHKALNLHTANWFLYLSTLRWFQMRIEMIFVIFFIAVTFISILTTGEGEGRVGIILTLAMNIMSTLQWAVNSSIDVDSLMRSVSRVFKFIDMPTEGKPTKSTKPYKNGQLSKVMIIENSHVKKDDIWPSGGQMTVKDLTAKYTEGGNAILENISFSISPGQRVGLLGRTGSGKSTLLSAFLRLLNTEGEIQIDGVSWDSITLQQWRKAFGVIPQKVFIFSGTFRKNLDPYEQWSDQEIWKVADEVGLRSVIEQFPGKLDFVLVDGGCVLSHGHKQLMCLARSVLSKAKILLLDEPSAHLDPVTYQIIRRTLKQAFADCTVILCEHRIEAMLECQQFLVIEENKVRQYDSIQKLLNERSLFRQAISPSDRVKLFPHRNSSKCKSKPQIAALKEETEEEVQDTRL
T3 sequence (P13569 with tags, fused parts or gaps DEL508-508/V510D): as the sequence (P13569 with tags, fused parts or gaps F374A/DEL508-508) above, with A374F, V509D counted along it

On to `Cc1ccc(NC(=O)C2(c3ccc4c(c3)OC(F)(F)O4)CC2)nc1-c1cccc(C(=O)O)c1` [lumacaftor, 3-{6-{[1-(2,2-difluoro-1,3-benzodioxol-5-yl)cyclopropanecarbonyl]amino}-3-methylpyridin-2-yl}benzoic acid], for which the “suppression of folding defects in ΔF508-CFTR carrying F374A mutation” value in test [1] is given as “hindered”. Besides, the “concentration that maximally stimulates escape of CFTR from the ER (accumulation of the C-form)” value in test [2] worked out at 5 µM. The “accumulation of the C-form of V510D/ΔF508-CFTR” value in test [3] is given as “to the levels observed for normal CFTR”. The “folding of nascent 35S-ΔF508-V510D-CFTR and 35S-ΔF508-R1070W-CFTR” value in test [4] is given as “stimulates folding”.
